{"source": "paper PMC4490784", "about": "“Compensatory induction of MYC expression by sustained CDK9 inhibition via a BRD4-dependent mechanism” (eLife, 2015)", "assay_in_all_cases": "KINOMEscan binding assay", "key": {"[1]": {"target": "T1, ABL1(M351T)-nonphosphorylated (Homo sapiens, UniProt P00519, M351T)", "T1 construct": "purchased DiscoveRx KINOMEscan", "conditions": "10 µM i-CDK9; read-out: % Retention on Solid Support", "summary_of_the_method": "(§1)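 Binding, not catalytic activity, is measured: the compound competes with an active-site-directed ligand. Screening concentrations were 1 and 10 µM, applied across more than 400 kinases.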"}, "CAMK4": {"target": "T2, CAMK4 (Homo sapiens, UniProt Q16566)", "T2 construct": "purchased DiscoveRx KINOMEscan", "conditions": "read-out: % Retention on Solid Support", "summary_of_the_method": "as §1"}, "CTK": {"target": "T3, CTK (Homo sapiens, UniProt P42679)", "T3 construct": "purchased DiscoveRx KINOMEscan", "conditions": "read-out: % Retention on Solid Support", "summary_of_the_method": "as §1"}, "DCAMKL1": {"target": "T4, DCAMKL1 (Homo sapiens, UniProt O15075)", "T4 construct": "purchased DiscoveRx KINOMEscan", "summary_of_the_method": "as §1"}, "EGFR(L858R,T790M)": {"target": "T5, EGFR(L858R,T790M) (Homo sapiens, UniProt P00533, L858R/T790M)", "T5 construct": "purchased DiscoveRx KINOMEscan", "summary_of_the_method": "as §1"}, "EGFR(T790M)": {"target": "T6, EGFR(T790M) (Homo sapiens, UniProt P00533, T790M)", "T6 construct": "purchased DiscoveRx KINOMEscan", "conditions": "1 µM i-CDK9", "summary_of_the_method": "as §1"}, "FGFR3": {"target": "T7, FGFR3 (Homo sapiens, UniProt P22607)", "T7 construct": "purchased DiscoveRx KINOMEscan", "T7 sequence (P22607 23-806)": "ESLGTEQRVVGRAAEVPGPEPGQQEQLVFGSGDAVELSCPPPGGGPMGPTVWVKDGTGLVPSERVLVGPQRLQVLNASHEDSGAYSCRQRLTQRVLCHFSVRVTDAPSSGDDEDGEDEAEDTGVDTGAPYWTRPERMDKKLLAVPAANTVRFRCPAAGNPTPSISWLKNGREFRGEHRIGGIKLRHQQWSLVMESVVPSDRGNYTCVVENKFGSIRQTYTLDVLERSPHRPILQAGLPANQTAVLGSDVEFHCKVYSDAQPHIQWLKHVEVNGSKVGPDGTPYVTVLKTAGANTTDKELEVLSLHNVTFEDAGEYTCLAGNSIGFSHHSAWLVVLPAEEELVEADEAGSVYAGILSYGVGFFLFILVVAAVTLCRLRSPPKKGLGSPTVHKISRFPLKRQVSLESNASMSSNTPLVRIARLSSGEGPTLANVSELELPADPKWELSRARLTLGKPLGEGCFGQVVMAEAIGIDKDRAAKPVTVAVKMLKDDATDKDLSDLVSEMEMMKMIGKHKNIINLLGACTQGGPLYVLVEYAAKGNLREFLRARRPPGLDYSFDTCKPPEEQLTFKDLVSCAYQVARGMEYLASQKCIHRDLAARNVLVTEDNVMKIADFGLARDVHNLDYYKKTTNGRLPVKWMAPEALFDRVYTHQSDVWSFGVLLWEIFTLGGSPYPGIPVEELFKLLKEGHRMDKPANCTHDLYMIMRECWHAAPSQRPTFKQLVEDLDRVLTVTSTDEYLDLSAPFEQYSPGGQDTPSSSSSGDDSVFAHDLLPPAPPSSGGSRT", "conditions": "read-out: % Retention on Solid Support", "summary_of_the_method": "as §1"}, "IGF1R": {"target": "T8, IGF1R (Homo sapiens, UniProt P08069)", "T8 construct": "purchased DiscoveRx KINOMEscan", "T8 sequence (P08069 31-1367)": "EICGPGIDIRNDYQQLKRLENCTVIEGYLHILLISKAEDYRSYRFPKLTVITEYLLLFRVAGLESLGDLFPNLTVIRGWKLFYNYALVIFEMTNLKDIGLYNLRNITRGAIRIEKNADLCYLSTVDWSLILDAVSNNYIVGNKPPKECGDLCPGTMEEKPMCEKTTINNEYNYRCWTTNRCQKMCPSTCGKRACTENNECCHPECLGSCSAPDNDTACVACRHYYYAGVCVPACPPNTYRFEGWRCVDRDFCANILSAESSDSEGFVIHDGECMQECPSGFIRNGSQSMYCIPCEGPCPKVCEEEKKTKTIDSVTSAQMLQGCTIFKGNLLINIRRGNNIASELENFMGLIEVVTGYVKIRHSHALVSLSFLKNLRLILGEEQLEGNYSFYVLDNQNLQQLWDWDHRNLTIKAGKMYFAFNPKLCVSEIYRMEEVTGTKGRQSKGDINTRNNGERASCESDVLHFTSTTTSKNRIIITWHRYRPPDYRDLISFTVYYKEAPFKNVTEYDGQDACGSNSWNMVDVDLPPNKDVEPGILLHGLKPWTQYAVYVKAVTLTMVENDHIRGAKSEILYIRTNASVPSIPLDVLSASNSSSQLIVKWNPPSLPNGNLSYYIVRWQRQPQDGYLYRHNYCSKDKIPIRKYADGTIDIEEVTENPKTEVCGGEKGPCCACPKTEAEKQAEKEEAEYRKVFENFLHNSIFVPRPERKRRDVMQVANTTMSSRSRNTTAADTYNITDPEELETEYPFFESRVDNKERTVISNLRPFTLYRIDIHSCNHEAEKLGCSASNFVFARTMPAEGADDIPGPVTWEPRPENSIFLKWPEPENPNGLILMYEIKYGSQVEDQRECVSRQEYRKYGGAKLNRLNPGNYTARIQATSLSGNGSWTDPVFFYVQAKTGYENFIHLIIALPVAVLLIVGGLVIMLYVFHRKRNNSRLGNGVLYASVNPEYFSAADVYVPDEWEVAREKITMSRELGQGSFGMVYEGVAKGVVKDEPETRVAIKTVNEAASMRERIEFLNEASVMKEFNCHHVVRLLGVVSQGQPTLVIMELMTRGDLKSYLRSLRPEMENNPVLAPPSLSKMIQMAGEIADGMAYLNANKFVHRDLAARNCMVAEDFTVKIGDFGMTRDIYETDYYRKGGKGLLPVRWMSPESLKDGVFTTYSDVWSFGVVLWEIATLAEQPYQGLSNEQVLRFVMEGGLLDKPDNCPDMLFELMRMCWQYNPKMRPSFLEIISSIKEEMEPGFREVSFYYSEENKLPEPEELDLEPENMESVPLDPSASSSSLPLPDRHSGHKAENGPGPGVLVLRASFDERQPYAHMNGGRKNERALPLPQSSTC", "conditions": "read-out: % Retention on Solid Support", "summary_of_the_method": "as §1"}, "MLK1": {"target": "T9, MLK1 (Homo sapiens, UniProt P80192)", "T9 construct": "purchased DiscoveRx KINOMEscan", "conditions": "read-out: % Retention on Solid Support", "summary_of_the_method": "as §1"}, "MST3": {"target": "T10, MST3 (Homo sapiens, UniProt Q9Y6E0)", "T10 construct": "purchased DiscoveRx KINOMEscan", "summary_of_the_method": "as §1"}, "MYO3B": {"target": "T11, MYO3B (Homo sapiens, UniProt Q8WXR4)", "T11 construct": "purchased DiscoveRx KINOMEscan", "conditions": "read-out: % Retention on Solid Support", "summary_of_the_method": "as §1"}, "NEK2": {"target": "T12, NEK2 (Homo sapiens, UniProt P51955)", "T12 construct": "purchased DiscoveRx KINOMEscan", "conditions": "read-out: % Retention on Solid Support", "summary_of_the_method": "as §1"}, "PDPK1": {"target": "T13, PDPK1 (Homo sapiens, UniProt O15530)", "T13 construct": "purchased DiscoveRx KINOMEscan", "T13 sequence (O15530 1-556)": "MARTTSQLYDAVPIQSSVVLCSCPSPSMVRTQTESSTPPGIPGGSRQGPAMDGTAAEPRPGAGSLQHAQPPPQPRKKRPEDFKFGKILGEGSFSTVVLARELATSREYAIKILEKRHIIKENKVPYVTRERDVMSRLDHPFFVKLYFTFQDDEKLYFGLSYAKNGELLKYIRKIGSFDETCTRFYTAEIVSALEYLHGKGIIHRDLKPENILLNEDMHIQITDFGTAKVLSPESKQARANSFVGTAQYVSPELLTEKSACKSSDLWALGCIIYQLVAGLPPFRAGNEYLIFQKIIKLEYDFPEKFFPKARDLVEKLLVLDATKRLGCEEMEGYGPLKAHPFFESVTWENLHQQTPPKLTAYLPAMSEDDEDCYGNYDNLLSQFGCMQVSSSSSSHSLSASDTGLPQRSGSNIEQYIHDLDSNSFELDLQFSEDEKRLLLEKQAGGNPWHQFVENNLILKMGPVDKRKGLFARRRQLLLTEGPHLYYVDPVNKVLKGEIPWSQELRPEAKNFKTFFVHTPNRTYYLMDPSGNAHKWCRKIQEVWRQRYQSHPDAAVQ", "conditions": "read-out: % Retention on Solid Support", "summary_of_the_method": "as §1"}, "PIM1": {"target": "T14, PIM1 (Homo sapiens, UniProt P11309)", "T14 construct": "purchased DiscoveRx KINOMEscan", "conditions": "read-out: % Retention on Solid Support", "summary_of_the_method": "as §1"}, "PLK4": {"target": "T15, PLK4 (Homo sapiens, UniProt O00444)", "T15 construct": "purchased DiscoveRx KINOMEscan", "conditions": "read-out: % Retention on Solid Support", "summary_of_the_method": "as §1"}, "PRKCH": {"target": "T16, PRKCH (Homo sapiens, UniProt P24723)", "T16 construct": "purchased DiscoveRx KINOMEscan", "conditions": "read-out: % Retention on Solid Support", "summary_of_the_method": "as §1"}, "PRKG1": {"target": "T17, PRKG1 (Homo sapiens, UniProt Q13976)", "T17 construct": "purchased DiscoveRx KINOMEscan", "conditions": "read-out: % Retention on Solid Support", "summary_of_the_method": "as §1"}, "SNARK": {"target": "T18, SNARK (Homo sapiens, UniProt Q9H093)", "T18 construct": "purchased DiscoveRx KINOMEscan", "summary_of_the_method": "as §1"}, "TNIK": {"target": "T19, TNIK (Homo sapiens, UniProt Q9UKE5)", "T19 construct": "purchased DiscoveRx KINOMEscan", "conditions": "read-out: % Retention on Solid Support", "summary_of_the_method": "as §1"}, "TYRO3": {"target": "T20, TYRO3 (Homo sapiens, UniProt Q06418)", "T20 construct": "purchased DiscoveRx KINOMEscan", "T20 sequence (Q06418 41-890)": "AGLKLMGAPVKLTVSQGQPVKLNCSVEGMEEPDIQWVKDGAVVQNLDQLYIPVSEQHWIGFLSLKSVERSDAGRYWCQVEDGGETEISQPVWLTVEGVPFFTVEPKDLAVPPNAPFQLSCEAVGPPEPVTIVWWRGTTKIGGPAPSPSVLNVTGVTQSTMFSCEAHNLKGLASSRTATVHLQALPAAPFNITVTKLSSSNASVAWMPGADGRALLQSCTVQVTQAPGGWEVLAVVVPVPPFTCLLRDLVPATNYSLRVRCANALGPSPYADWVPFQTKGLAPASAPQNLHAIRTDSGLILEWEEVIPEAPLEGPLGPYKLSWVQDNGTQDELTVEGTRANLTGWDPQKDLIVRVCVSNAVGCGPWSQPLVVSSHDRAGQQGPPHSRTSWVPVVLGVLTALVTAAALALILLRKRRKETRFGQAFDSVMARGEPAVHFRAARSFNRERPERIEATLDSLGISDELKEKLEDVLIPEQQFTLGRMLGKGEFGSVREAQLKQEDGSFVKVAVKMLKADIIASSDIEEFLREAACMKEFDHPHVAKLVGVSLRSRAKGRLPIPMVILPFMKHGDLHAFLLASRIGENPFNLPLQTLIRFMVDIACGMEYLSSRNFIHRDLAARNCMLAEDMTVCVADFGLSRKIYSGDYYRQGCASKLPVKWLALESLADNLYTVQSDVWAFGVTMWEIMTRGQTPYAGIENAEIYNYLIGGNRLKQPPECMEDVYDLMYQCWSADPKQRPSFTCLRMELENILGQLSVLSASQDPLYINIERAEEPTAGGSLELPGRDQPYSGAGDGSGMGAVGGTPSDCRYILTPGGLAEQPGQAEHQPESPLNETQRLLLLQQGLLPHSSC", "conditions": "read-out: % Retention on Solid Support", "summary_of_the_method": "as §1"}, "VEGFR2": {"target": "T21, VEGFR2 (Homo sapiens, UniProt P35968)", "T21 construct": "purchased DiscoveRx KINOMEscan", "T21 sequence (P35968 20-1356)": "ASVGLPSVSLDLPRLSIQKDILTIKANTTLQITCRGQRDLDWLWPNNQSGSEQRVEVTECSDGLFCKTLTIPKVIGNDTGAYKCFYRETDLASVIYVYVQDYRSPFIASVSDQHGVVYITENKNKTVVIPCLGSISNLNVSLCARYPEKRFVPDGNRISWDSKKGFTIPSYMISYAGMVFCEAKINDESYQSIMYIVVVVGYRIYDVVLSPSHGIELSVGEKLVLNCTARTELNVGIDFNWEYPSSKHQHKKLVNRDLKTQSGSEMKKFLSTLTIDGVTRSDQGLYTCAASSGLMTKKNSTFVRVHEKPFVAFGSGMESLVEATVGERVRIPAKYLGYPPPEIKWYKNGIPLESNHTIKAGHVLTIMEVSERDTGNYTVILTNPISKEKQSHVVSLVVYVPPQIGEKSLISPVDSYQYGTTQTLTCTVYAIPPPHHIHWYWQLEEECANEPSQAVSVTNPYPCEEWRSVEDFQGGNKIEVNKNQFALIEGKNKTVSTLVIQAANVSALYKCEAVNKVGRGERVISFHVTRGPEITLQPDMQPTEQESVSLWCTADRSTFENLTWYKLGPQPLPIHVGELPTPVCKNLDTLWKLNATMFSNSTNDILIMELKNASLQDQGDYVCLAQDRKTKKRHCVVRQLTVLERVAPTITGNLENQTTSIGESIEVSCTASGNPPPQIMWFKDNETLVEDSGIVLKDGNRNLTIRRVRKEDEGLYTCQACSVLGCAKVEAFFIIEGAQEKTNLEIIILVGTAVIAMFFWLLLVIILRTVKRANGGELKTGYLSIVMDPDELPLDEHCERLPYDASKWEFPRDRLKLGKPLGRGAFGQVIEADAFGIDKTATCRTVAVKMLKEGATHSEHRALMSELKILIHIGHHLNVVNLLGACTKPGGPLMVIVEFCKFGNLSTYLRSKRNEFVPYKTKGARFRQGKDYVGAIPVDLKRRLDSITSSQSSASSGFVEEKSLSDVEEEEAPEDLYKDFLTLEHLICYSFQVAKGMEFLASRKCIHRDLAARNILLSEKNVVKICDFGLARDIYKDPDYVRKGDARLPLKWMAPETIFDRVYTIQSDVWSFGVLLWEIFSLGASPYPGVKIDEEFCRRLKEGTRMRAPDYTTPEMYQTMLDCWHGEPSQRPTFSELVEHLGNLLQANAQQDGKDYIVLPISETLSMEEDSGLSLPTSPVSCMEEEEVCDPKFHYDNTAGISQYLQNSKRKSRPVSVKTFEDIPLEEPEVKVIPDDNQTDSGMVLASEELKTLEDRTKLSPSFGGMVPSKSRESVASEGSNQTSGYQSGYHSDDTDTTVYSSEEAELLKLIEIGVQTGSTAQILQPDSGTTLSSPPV", "conditions": "read-out: % Retention on Solid Support", "summary_of_the_method": "as §1"}, "YSK4": {"target": "T22, YSK4 (Homo sapiens, UniProt Q56UN5)", "T22 construct": "purchased DiscoveRx KINOMEscan", "conditions": "read-out: % Retention on Solid Support", "summary_of_the_method": "as §1"}, "p38-delta": {"target": "T23, p38-delta (Homo sapiens, UniProt O15264)", "T23 construct": "purchased DiscoveRx KINOMEscan", "conditions": "read-out: % Retention on Solid Support", "summary_of_the_method": "as §1"}}, "data": [{"molecule": "N[C@H]1CC[C@H](Nc2cc(-c3cccc(NCc4cccc(F)c4)n3)c(Cl)cn2)CC1", "note": "[i-CDK9, N2′-(trans-4-aminocyclohexyl)-5′-chloro-N6-(3-fluorobenzyl)-2,4′-bipyridine-2′,6-diamine]", "values": [{"measurement": "remaining binding at 10 µM", "setting": "[1]", "value": 100, "unit": "%"}, {"measurement": "remaining binding at 1 µM", "setting": "CAMK4; 1 µM i-CDK9", "value": 78, "unit": "%"}, {"measurement": "remaining binding at 10 µM", "setting": "CAMK4; 10 µM i-CDK9", "value": 100, "unit": "%"}, {"measurement": "remaining binding at 1 µM", "setting": "CTK; 1 µM i-CDK9", "value": 75, "unit": "%"}, {"measurement": "remaining binding at 10 µM", "setting": "CTK; 10 µM i-CDK9", "value": 100, "unit": "%"}, {"measurement": "% Retention on Solid Support", "setting": "DCAMKL1; 1 µM i-CDK9", "value": 100, "unit": "%"}, {"measurement": "% Retention on Solid Support", "setting": "DCAMKL1; 10 µM i-CDK9", "value": 100, "unit": "%"}, {"measurement": "% Retention on Solid Support", "setting": "EGFR(L858R,T790M); 1 µM i-CDK9", "value": 100, "unit": "%"}, {"measurement": "% Retention on Solid Support", "setting": "EGFR(L858R,T790M); 10 µM i-CDK9", "value": 89, "unit": "%"}, {"measurement": "% Retention on Solid Support", "setting": "EGFR(T790M)", "value": 100, "unit": "%"}, {"measurement": "remaining binding at 1 µM", "setting": "FGFR3; 1 µM i-CDK9", "value": 100, "unit": "%"}, {"measurement": "remaining binding at 10 µM", "setting": "FGFR3; 10 µM i-CDK9", "value": 95, "unit": "%"}, {"measurement": "remaining binding at 1 µM", "setting": "IGF1R; 1 µM i-CDK9", "value": 94, "unit": "%"}, {"measurement": "remaining binding at 10 µM", "setting": "IGF1R; 10 µM i-CDK9", "value": 100, "unit": "%"}, {"measurement": "remaining binding at 1 µM", "setting": "MLK1; 1 µM i-CDK9", "value": 100, "unit": "%"}, {"measurement": "remaining binding at 10 µM", "setting": "MLK1; 10 µM i-CDK9", "value": 100, "unit": "%"}, {"measurement": "% Retention on Solid Support", "setting": "MST3; 1 µM i-CDK9", "value": 83, "unit": "%"}, {"measurement": "% Retention on Solid Support", "setting": "MST3; 10 µM i-CDK9", "value": 90, "unit": "%"}, {"measurement": "remaining binding at 1 µM", "setting": "MYO3B; 1 µM i-CDK9", "value": 100, "unit": "%"}, {"measurement": "remaining binding at 10 µM", "setting": "MYO3B; 10 µM i-CDK9", "value": 36, "unit": "%"}, {"measurement": "remaining binding at 1 µM", "setting": "NEK2; 1 µM i-CDK9", "value": 77, "unit": "%"}, {"measurement": "remaining binding at 10 µM", "setting": "NEK2; 10 µM i-CDK9", "value": 100, "unit": "%"}, {"measurement": "remaining binding at 1 µM", "setting": "PDPK1; 1 µM i-CDK9", "value": 100, "unit": "%"}, {"measurement": "remaining binding at 10 µM", "setting": "PDPK1; 10 µM i-CDK9", "value": 90, "unit": "%"}, {"measurement": "remaining binding at 1 µM", "setting": "PIM1; 1 µM i-CDK9", "value": 100, "unit": "%"}, {"measurement": "remaining binding at 10 µM", "setting": "PIM1; 10 µM i-CDK9", "value": 23, "unit": "%"}, {"measurement": "remaining binding at 1 µM", "setting": "PLK4; 1 µM i-CDK9", "value": 89, "unit": "%"}, {"measurement": "remaining binding at 10 µM", "setting": "PLK4; 10 µM i-CDK9", "value": 91, "unit": "%"}, {"measurement": "remaining binding at 1 µM", "setting": "PRKCH; 1 µM i-CDK9", "value": 83, "unit": "%"}, {"measurement": "remaining binding at 10 µM", "setting": "PRKCH; 10 µM i-CDK9", "value": 80, "unit": "%"}, {"measurement": "remaining binding at 1 µM", "setting": "PRKG1; 1 µM i-CDK9", "value": 81, "unit": "%"}, {"measurement": "remaining binding at 10 µM", "setting": "PRKG1; 10 µM i-CDK9", "value": 88, "unit": "%"}, {"measurement": "% Retention on Solid Support", "setting": "SNARK; 1 µM i-CDK9", "value": 100, "unit": "%"}, {"measurement": "% Retention on Solid Support", "setting": "SNARK; 10 µM i-CDK9", "value": 87, "unit": "%"}, {"measurement": "remaining binding at 1 µM", "setting": "TNIK; 1 µM i-CDK9", "value": 72, "unit": "%"}, {"measurement": "remaining binding at 10 µM", "setting": "TNIK; 10 µM i-CDK9", "value": 36, "unit": "%"}, {"measurement": "remaining binding at 1 µM", "setting": "TYRO3; 1 µM i-CDK9", "value": 71, "unit": "%"}, {"measurement": "remaining binding at 10 µM", "setting": "TYRO3; 10 µM i-CDK9", "value": 100, "unit": "%"}, {"measurement": "remaining binding at 1 µM", "setting": "VEGFR2; 1 µM i-CDK9", "value": 83, "unit": "%"}, {"measurement": "remaining binding at 10 µM", "setting": "VEGFR2; 10 µM i-CDK9", "value": 93, "unit": "%"}, {"measurement": "remaining binding at 1 µM", "setting": "YSK4; 1 µM i-CDK9", "value": 100, "unit": "%"}, {"measurement": "remaining binding at 10 µM", "setting": "YSK4; 10 µM i-CDK9", "value": 68, "unit": "%"}, {"measurement": "remaining binding at 1 µM", "setting": "p38-delta; 1 µM i-CDK9", "value": 100, "unit": "%"}, {"measurement": "remaining binding at 10 µM", "setting": "p38-delta; 10 µM i-CDK9", "value": 98, "unit": "%"}]}]}
